From ChEMBL document CHEMBL1131783, “Prodrugs of CL316243: a selective beta3-adrenergic receptor agonist for treating obesity and diabetes” (Bioorg Med Chem Lett, 1999) come the findings set out here.

For this experiment, the target named is Beta-3 adrenergic receptor (Rattus norvegicus) (UniProt P26255). Kind of experiment: Beta-3-adrenergic activity measured by percent response against free fatty acid (FFA) in rat plasma at a dosage of 0.1 mg/kg. The experiment is classed as functional, organism-based. The arrangement: dose 0.1 mg/kg.
Sequence of Beta-3 adrenergic receptor (Rattus norvegicus) (P26255 whole entry): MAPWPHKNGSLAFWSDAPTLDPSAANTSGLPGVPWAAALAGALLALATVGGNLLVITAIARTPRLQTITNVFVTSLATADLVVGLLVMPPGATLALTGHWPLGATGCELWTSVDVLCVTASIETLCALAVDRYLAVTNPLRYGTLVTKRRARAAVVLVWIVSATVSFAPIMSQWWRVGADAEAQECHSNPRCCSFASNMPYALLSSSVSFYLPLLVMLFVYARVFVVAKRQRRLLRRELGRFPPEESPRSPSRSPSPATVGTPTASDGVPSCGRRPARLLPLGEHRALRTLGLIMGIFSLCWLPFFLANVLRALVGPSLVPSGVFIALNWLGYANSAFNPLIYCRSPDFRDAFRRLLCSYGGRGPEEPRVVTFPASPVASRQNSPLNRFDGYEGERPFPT

Consider `COC(=O)C(C)OC(=O)C1(C(=O)OC(C)C(=O)OC)Oc2ccc(C[C@@H](C)NC[C@H](O)c3cccc(Cl)c3)cc2O1` (stereo not given in full), for which the Response was 42%. The same measure for `CC(C)C(=O)OCOC(=O)C1(C(=O)OCOC(=O)C(C)C)Oc2ccc(C[C@@H](C)NC[C@H](O)c3cccc(Cl)c3)cc2O1`: 26%. Turning to `CCCCOCCOC(=O)C1(C(=O)O)Oc2ccc(C[C@@H](C)NC[C@H](O)c3cccc(Cl)c3)cc2O1` (stereo not given in full), the Response came to 83%.

Molecule `CC(OC(=O)c1ccccc1)OC(=O)C1(C(=O)OC(C)OC(=O)c2ccccc2)Oc2ccc(C[C@@H](C)NC[C@H](O)c3cccc(Cl)c3)cc2O1` (stereo not given in full) displayed a Response of 30%.

In the case of `COCCOC(=O)C1(C(=O)O)Oc2ccc(C[C@@H](C)NC[C@H](O)c3cccc(Cl)c3)cc2O1` (stereo not given in full), the Response worked out at 85%.

With `C[C@H](Cc1ccc2c(c1)OC(C(=O)OCCCc1ccccc1)(C(=O)OCCCc1ccccc1)O2)NC[C@H](O)c1cccc(Cl)c1`, the Response came to 61%. For the molecule `CC(C)OC(=O)C1(C(=O)O)Oc2ccc(C[C@@H](C)NC[C@H](O)c3cccc(Cl)c3)cc2O1` (stereo not given in full), the Response was determined as 45%. The same measure for `C[C@H](Cc1ccc2c(c1)OC(C(=O)OCCOc1cccc(Cl)c1)(C(=O)OCCOc1cccc(Cl)c1)O2)NC[C@H](O)c1cccc(Cl)c1`: 88%; for `C[C@H](Cc1ccc2c(c1)OC(C(=O)O)(C(=O)OCCC1CC1)O2)NC[C@H](O)c1cccc(Cl)c1` (stereo not given in full): 19%; for `CCC(=O)OCOC(=O)C1(C(=O)OCOC(=O)CC)Oc2ccc(C[C@@H](C)NC[C@H](O)c3cccc(Cl)c3)cc2O1`: 10%. `C[C@H](Cc1ccc2c(c1)OC(C(=O)OC1CCCC1)(C(=O)OC1CCCC1)O2)NC[C@H](O)c1cccc(Cl)c1` came in with a Response of 118%. The same measure for `CCOCCOC(=O)C1(C(=O)O)Oc2ccc(C[C@@H](C)NC[C@H](O)c3cccc(Cl)c3)cc2O1` (stereo not given in full): 73%; for `C[C@H](Cc1ccc2c(c1)OC(C(=O)O)(C(=O)OCC1CC1)O2)NC[C@H](O)c1cccc(Cl)c1` (stereo not given in full): 37%; for `C[C@H](Cc1ccc2c(c1)OC(C(=O)OCCc1cccc(C(F)(F)F)c1)(C(=O)OCCc1cccc(C(F)(F)F)c1)O2)NC[C@H](O)c1cccc(Cl)c1`: 28%.

On to `C[C@H](Cc1ccc2c(c1)OC(C(=O)OC[Si](C)(C)C)(C(=O)OC[Si](C)(C)C)O2)NC[C@H](O)c1cccc(Cl)c1`, for which the Response was 73%. The same measure for `CCCC(=O)OCOC(=O)C1(C(=O)OCOC(=O)CCC)Oc2ccc(C[C@@H](C)NC[C@H](O)c3cccc(Cl)c3)cc2O1`: 24%; for `CCCCCCCCOC(=O)C1(C(=O)OCCCCCCCC)Oc2ccc(C[C@@H](C)NC[C@H](O)c3cccc(Cl)c3)cc2O1`: 46%; for `Cc1cccc(CCOC(=O)C2(C(=O)OCCc3cccc(C)c3)Oc3ccc(C[C@@H](C)NC[C@H](O)c4cccc(Cl)c4)cc3O2)c1`: 39%. Molecule `C[C@H](Cc1ccc2c(c1)OC(C(=O)OCC1CCCCC1)(C(=O)OCC1CCCCC1)O2)NC[C@H](O)c1cccc(Cl)c1` showed a Response of 22%. The same measure for `CC(C)CCOC(=O)C1(C(=O)O)Oc2ccc(C[C@@H](C)NC[C@H](O)c3cccc(Cl)c3)cc2O1` (stereo not given in full): 42%. The same measure for `C[C@H](Cc1ccc2c(c1)OC(C(=O)OCCOC(C)(C)C)(C(=O)OCCOC(C)(C)C)O2)NC[C@H](O)c1cccc(Cl)c1`: 14%; for `C[C@H](Cc1ccc2c(c1)OC(C(=O)O)(C(=O)OC[Si](C)(C)C)O2)NC[C@H](O)c1cccc(Cl)c1` (stereo not given in full): 30%. The same measure for `C[C@H](Cc1ccc2c(c1)OC(C(=O)OCc1cccc(Cl)c1)(C(=O)OCc1cccc(Cl)c1)O2)NC[C@H](O)c1cccc(Cl)c1`: 46%; for `C[C@H](Cc1ccc2c(c1)OC(C(=O)OCOC(=O)c1ccccc1)(C(=O)OCOC(=O)c1ccccc1)O2)NC[C@H](O)c1cccc(Cl)c1`: 31%; for `C[C@H](Cc1ccc2c(c1)OC(C(=O)OCC1CCCCO1)(C(=O)OCC1CCCCO1)O2)NC[C@H](O)c1cccc(Cl)c1` (stereo not given in full): 11%.
